Experimental findings from US20240376068A1, “SIGMA LIGAND COMPOUNDS AND USES THEREOF” (Minerva Neurosciences, Inc., priority 2020, published 2024) are described below.

As a reminder, the pIC50 is the negative decadic logarithm of the IC50, by convention in mol/L. Low values mean a high IC50, high ones a low IC50. The pKi is the negative decadic logarithm of the Ki, by convention in mol/L.

pIC50, pKi: −log10 of the molar value. Like-named read-outs stand apart in the source and are kept apart here.

One data set addresses hERG (Homo sapiens (Human), UniProt Q12809). Description: hERG inhibition assay.
Data set [1] has as its target T1, α1d (h) (Homo sapiens (Human), UniProt P25100). Description: α1D adrenergic agonist effect assay. The format is cell-based. Conditions: CHO cells.
The target of data set [2] is T2, α1b (h) (Homo sapiens (Human), UniProt P35368). Description: α1B adrenergic antagonist effect assay. The format is cell-based. Conditions: CHO cells.
T2 sequence (P35368 whole entry): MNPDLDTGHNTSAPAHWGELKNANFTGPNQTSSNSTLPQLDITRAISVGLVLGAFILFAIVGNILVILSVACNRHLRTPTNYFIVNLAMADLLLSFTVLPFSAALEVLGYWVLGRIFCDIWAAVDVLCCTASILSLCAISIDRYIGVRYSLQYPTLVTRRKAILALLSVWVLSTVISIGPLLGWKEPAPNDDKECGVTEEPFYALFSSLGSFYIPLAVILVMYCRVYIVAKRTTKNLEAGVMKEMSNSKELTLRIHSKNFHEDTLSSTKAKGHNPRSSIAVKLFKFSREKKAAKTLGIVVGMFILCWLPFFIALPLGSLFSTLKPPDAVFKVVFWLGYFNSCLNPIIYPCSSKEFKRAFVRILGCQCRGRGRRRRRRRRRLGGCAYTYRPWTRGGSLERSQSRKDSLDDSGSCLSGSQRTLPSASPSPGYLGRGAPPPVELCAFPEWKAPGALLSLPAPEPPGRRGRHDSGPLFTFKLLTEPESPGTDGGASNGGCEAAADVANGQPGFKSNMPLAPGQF
Data set [3] deals with T1, α1d (h). In words: α1D adrenergic antagonist effect assay. Type of data set: cell-based. Conditions: CHO cells.
For another data set, the target named is sigma 1 (h) (Homo sapiens (Human), UniProt Q99720). In words: Sigma-1 binding assay. How it is done: (§1) Assays for determining Sigma-1 and Sigma-2 binding values were performed according to Ganapathy, M. E. et al. (1999), J. Pharmacol. Exp. Ther., 289:251-260.
sigma 1 (h), sequence (Q99720 whole entry): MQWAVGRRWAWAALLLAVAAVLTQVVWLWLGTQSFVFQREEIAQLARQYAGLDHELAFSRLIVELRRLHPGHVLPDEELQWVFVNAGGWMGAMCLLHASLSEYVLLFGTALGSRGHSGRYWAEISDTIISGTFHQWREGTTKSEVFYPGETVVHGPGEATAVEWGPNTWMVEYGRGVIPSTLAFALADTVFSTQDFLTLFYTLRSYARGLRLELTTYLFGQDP
In data set [4] the target is T3, α1a (h) (Homo sapiens (Human), UniProt P35348). In words: α1A adrenergic antagonist effect assay. The format is cell-based. The note with it: antagonist effect, CHO cells. As to the method:
Assays for determining the antagonist effect on α1A (h) were performed according to the procedure described in Example 21, and the results are represented in Table E below. […] No antagonist effect is observed for the other compounds.

The subject of the next data set is Vero-E6 cell line. Description: Toxicity evaluation on Vero-E6 cell line. The note with it: Vero E6, 50 μM to 0.37 μM, 72 h post treatment. The format is cell-based. As to the method:
Day 1: Cell were seeded in 96 wells plate, Vero E6, P40, 10000 cells/well. Growth conditions included medium DMEM high glucose.
Day 2: Compounds were diluted in a mix of 50% DMSO and 50% growth medium to. 10 mM concentration was used for PB28 (10 mg vial from Tocris, 1-Cyclohexyl-4-(3-(5-methoxy-1,2,3,4-tetrahydronaphthalen-1-yl)-n-propyl)piperazine dihydrochloride, see Gordon et al. Nature 2020, 583, […]). Other compounds were prepared at 2 mM concentration stock solution. Cells were treated from 50 μM to 0.37 μM by serial dilution two-fold dilution in triplicate. Controls were designed to include the same concentration of DMSO for each tested products.
Day 5: For a 72 h post treatment, cells were fixed with formalin and stained with Hoetsch33342. Cells were imaged using a Cell Insight CX7 high content screening microscope. Number of cells and nuclear parameters were assessed using an internal cytotoxicity testing protocol.

The target in the next data set is Sigma 2 (h) (Homo sapiens (Human), UniProt Q5BJF2). Description: Sigma-2 binding assay. How it is done: as §1
Sigma 2 (h), sequence (Q5BJF2 whole entry): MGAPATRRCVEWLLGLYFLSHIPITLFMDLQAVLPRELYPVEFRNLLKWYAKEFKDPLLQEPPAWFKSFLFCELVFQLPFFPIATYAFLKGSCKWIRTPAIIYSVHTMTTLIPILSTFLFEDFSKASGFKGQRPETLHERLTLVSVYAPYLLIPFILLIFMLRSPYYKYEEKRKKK
In data set [5] the target is T2, α1b (h). Description: α1B adrenergic agonist effect assay. The format is cell-based. The note with it: CHO cells.
The next data set deals with 5-HT2A (h) (Homo sapiens (Human), UniProt P28223). Description: 5-HT2A binding assay. The note with it: antagonist radioligand, HEK-293 cells. How it is done:
Assays for determining 5-HT2A binding values were performed according to: Bonhaus, D. W. et al. (1995), Brit. J. Pharmacol., 115:622-628; Schwinn, D. A. et al. (1995), J. Pharmacol. Exp. Ther., 272:134-142; and Vicentic, A. et al. (2002), J. Pharmacol. Exp. Ther., 302:58-65; Bylund D B et al. (1994), Pharmacol. Rev. 46:121-136. Each of which is incorporated by reference in its entirety.

The target in data set [6] is T3, α1a (h). Description: α1A adrenergic agonist effect assay. The format is cell-based. The note with it: agonist effect, CHO cells. As to the method:
Assays for determining the agonist effect on α1A (h) were performed according to the procedure described in Example 21, and the results are represented in Table D below.

T1 sequence (P25100 whole entry): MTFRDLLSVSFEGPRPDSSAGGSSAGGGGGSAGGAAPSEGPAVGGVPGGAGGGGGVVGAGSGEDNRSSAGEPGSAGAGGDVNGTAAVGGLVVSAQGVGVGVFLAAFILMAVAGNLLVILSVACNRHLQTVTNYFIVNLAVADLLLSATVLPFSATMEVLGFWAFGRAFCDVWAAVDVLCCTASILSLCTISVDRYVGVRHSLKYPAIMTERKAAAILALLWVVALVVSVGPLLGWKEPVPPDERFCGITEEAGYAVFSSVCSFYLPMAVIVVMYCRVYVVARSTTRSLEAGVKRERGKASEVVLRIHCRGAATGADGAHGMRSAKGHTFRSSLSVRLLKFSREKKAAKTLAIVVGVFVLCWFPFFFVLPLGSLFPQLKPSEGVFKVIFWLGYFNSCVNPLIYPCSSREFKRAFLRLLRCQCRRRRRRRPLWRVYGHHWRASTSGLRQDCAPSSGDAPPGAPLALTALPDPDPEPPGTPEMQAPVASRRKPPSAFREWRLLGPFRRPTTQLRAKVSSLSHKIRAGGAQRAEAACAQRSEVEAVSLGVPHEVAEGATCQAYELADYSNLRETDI
T3 sequence (P35348 whole entry): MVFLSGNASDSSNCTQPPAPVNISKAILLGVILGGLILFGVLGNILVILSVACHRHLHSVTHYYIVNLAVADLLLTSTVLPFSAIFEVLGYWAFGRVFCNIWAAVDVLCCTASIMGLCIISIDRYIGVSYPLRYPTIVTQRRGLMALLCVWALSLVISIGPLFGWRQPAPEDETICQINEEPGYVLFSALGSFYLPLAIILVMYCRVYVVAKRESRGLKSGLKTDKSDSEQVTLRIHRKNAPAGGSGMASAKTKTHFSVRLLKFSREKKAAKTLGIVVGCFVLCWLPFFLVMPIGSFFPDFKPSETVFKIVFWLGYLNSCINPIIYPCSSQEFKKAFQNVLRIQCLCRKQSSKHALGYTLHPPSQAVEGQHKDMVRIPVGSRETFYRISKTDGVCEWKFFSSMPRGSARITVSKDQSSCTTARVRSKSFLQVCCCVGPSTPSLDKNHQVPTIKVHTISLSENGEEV
5-HT2A (h), sequence (P28223 whole entry): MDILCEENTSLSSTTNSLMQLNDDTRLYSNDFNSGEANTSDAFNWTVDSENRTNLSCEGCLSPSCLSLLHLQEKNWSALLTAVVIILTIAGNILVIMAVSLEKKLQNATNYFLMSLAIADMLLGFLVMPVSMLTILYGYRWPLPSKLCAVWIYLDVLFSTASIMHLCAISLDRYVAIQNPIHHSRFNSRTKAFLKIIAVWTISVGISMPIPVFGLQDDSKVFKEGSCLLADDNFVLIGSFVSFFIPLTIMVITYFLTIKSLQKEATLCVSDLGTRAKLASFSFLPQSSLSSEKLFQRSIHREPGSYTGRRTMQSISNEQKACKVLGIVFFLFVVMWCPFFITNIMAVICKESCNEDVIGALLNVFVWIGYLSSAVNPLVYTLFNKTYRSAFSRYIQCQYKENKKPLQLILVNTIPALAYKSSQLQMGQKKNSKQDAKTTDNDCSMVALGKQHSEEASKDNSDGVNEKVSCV
hERG, sequence (Q12809 whole entry): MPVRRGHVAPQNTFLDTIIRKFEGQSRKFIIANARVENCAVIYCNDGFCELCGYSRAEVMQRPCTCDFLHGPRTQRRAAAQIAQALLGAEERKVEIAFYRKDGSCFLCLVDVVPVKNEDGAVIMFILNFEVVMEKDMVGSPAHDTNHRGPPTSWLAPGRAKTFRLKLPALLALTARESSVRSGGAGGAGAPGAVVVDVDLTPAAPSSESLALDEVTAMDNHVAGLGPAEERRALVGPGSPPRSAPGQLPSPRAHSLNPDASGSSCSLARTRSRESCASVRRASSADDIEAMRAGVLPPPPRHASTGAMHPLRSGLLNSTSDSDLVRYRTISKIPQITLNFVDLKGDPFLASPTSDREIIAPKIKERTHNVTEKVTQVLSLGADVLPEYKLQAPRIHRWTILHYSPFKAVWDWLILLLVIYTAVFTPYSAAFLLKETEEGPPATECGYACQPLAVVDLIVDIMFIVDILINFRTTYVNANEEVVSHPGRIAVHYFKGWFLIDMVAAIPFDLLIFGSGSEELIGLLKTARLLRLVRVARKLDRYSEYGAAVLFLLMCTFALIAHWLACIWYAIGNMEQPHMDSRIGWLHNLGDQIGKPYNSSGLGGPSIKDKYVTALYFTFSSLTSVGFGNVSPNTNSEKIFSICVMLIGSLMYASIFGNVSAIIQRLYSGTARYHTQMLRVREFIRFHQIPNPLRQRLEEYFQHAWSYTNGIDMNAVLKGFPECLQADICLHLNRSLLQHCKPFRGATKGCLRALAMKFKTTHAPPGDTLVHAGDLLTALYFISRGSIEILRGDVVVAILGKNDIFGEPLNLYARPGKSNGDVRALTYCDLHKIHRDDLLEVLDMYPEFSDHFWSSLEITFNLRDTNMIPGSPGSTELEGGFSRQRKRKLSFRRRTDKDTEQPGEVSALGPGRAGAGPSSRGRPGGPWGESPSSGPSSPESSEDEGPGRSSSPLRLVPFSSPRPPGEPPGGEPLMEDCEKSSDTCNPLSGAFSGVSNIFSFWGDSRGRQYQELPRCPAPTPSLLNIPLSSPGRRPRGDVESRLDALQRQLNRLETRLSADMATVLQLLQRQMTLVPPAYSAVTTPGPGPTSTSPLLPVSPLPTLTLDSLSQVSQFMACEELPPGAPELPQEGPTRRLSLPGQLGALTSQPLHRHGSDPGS

On to `CCCN1CCN(c2ccc3c(c2)CN(C(=O)OCc2ccccc2)CC3(C)C)CC1` [Compound 2, benzyl 4,4-dimethyl-7-(4-propylpiperazin-1-yl)-3,4-dihydroisoquinoline-2(1H)-carboxylate], for which the pIC50 against hERG is below 5.52; at α1d (h) [1], below 6.00; against α1b (h) [2], below 6.00; against α1d (h) [3], below 6.00; at α1a (h) [4], below 6.00; on α1b (h) [5], below 6.00. The pIC50 on 5-HT2A (h) and on α1a (h) [6] was below 6.00 each time. Also, the pKi on sigma 1 (h) ([3H](+)pentazocine, Jurkat cells, read-out: Sigma-1 Ki) is 7.30 to 8.30; on Sigma 2 (h) ([3H]DTG (+1 μM (+)pentazocine), Jurkat cells, read-out: Sigma-2 Ki), 7.30 to 8.30. Further, in the data set on Vero-E6 cell line, the “cytotoxicity (cell number)” value is recorded as “not cytotoxic”.

For `CC1(C)CCN(C2CCCC2)Cc2cc(-c3ccc(C(F)(F)F)cc3)ccc21` [Compound 10, 2-cyclopentyl-5,5-dimethyl-8-(4-(trifluoromethyl)phenyl)-2,3,4,5-tetrahydro-1H-benzo[c]azepine], the negative-log IC50 (pIC50) was below 5.52 at hERG; below 6.00 at α1d (h) [1]; below 6.00 against α1b (h) [2]; below 6.00 on α1d (h) [3]; below 6.00 at α1a (h) [4]; below 6.00 on α1b (h) [5]. Moreover, the pIC50 at 5-HT2A (h) and at α1a (h) [6] was below 6.00 each time. Moreover, the negative-log Ki (pKi) was below 6.30 on sigma 1 (h) and 7.30 to 8.30 on Sigma 2 (h).
